This note sets out measurements from PubChem BioAssay AID330 (DTP/NCI, 2004).

Where “and” joins values, the source holds several entries; their conditions need not be identical. Identical values can stand only once. Inconclusive results and toxic doses are left out. Square brackets hold non-standard residues; d marks the D form. Peptide text beside a SMILES is read from it. * marks the point of attachment. ξ: configuration not given here. ξF = NC(Cc1ccccc1)C(=O)O; Cbz = O=C(OCc1ccccc1)*

This assay concerns P388 leukemia ip, CD2F1 mice, survival T/C. Description: NCI In Vivo Anticancer Drug Screen. Data for tumor model P388 Leukemia (intraperitoneal) in CD2F1 (CDF1) mice. Particulars: endpoint: median survival time, higher = longer survival. A digest of the protocol:
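Mice carrying the transplanted tumor received test compound or vehicle. Survival was recorded in each group, and the value is the treated-group measurement divided by that of the vehicle-treated control group.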

[1] abbreviates: dose: 50.0 mg/kg/injection, schedule: Q01DX009 (ip), vehicle: Klucel (hydroxypropylcellulose) (HPC).
Where [2] appears, read: dose: 100.0 mg/kg/injection, schedule: Q01DX009 (ip), vehicle: Klucel (hydroxypropylcellulose) (HPC).
The mark [3] stands for this setting: dose: 200.0 mg/kg/injection, schedule: Q01DX009 (ip), vehicle: Klucel (hydroxypropylcellulose) (HPC).
Setting [4] is: dose: 50.0 mg/kg/injection, schedule: Q01DX005 (ip), vehicle: saline with Tween-80.
Where [5] appears, read: dose: 100.0 mg/kg/injection, schedule: Q01DX005 (ip), vehicle: saline with Tween-80.
[6] abbreviates: dose: 60.0 mg/kg/injection, schedule: Q01DX005 (ip), vehicle: saline with Tween-80.
Setting [7] is: dose: 120.0 mg/kg/injection, schedule: Q01DX005 (ip), vehicle: saline with Tween-80.
[8] abbreviates: dose: 240.0 mg/kg/injection, schedule: Q01DX005 (ip), vehicle: saline with Tween-80.
Setting [9] is: dose: 50.0 mg/kg/injection, schedule: Q01DX005 (ip), vehicle: Klucel (hydroxypropylcellulose) (HPC).
The mark [10] stands for this setting: dose: 100.0 mg/kg/injection, schedule: Q01DX005 (ip), vehicle: Klucel (hydroxypropylcellulose) (HPC).
The mark [11] stands for this setting: dose: 200.0 mg/kg/injection, schedule: Q01DX005 (ip), vehicle: Klucel (hydroxypropylcellulose) (HPC).
Where [12] appears, read: dose: 12.5 mg/kg/injection, schedule: Q01DX005 (ip), vehicle: Klucel (hydroxypropylcellulose) (HPC).
Where [13] appears, read: dose: 50.0 mg/kg/injection, schedule: Q01DX009 (ip), vehicle: saline with Tween-80.
The mark [14] stands for this setting: dose: 100.0 mg/kg/injection, schedule: Q01DX009 (ip), vehicle: saline with Tween-80.

For the compound `O=C1C(=O)N(c2ccccc2Cl)C(=O)N1Cc1ccccc1`, the T/C under setting [1] was 95 % of control, the T/C under setting [2] was 98 % of control and the T/C under setting [3] is 91 % of control.
`CNC(=S)Sc1c(Cl)c(Cl)c(Cl)c(Cl)c1Cl`: the T/C is 108 % of control under setting [1], 108 % of control under setting [2] and 99 % of control under setting [3].
In the case of `O=C1C(C(=Nc2ccc(Br)cc2)c2ccccc2)=C(O)c2ccccc21`, the T/C is 93 % of control (dose: 25.0 mg/kg/injection, schedule: Q04DX002 (ip), vehicle: saline with Tween-80); 99 % of control (dose: 50.0 mg/kg/injection, schedule: Q04DX002 (ip), vehicle: saline with Tween-80); 92 % of control (dose: 100.0 mg/kg/injection, schedule: Q04DX002 (ip), vehicle: saline with Tween-80).
Consider `O=C(CCS(=O)(=O)CCC(=O)c1ccccc1)c1ccccc1`, for which the T/C was 90 % of control (dose: 100.0 mg/kg/injection, schedule: Q04DX003 (ip), vehicle: saline); 89 % of control (dose: 200.0 mg/kg/injection, schedule: Q04DX003 (ip), vehicle: saline); 88 % of control (dose: 400.0 mg/kg/injection, schedule: Q04DX003 (ip), vehicle: saline).
For the compound `Cc1cc(NC(=O)c2ccc(N)cc2)ccc1N=Nc1ccc2c(O)c(N=Nc3ccc(S(=O)(=O)O)cc3C)c(S(=O)(=O)O)cc2c1`, the T/C is, setting by setting: under setting [4], 100 % of control; under setting [5], 90 % of control.
Regarding `Nc1c2c(c(N)c3c1C(=O)c1ccccc1C3=O)OCO2`, the T/C by setting is: under setting [6], 100 % of control; under setting [7], 98 % of control; under setting [8], 98 % of control.
As for `O=C1CSC(=S)N1/N=C/c1ccc(Cl)c(Cl)c1`, the T/C is 100 % of control (dose: 1.56 mg/kg/injection, schedule: Q01DX009 (ip), vehicle: saline with Tween-80); 110 % of control (dose: 3.13 mg/kg/injection, schedule: Q01DX009 (ip), vehicle: saline with Tween-80); 120 % of control (dose: 6.25 mg/kg/injection, schedule: Q01DX009 (ip), vehicle: saline with Tween-80).
Take `COc1ccc(-c2cc(O)c3c(c2N)C(=O)c2c(O)ccc(N)c2C3=O)cc1`: the T/C is, setting by setting: under setting [9], 86 % of control; under setting [10], 90 % of control; under setting [11], 90 % of control.
As to `CCN(CC)c1c(C)c(-c2ccccc2)n[n+]([O-])c1-c1ccccc1`, the T/C runs as follows: (dose: 100.0 mg/kg/injection, schedule: Q01DX001 (ip), vehicle: Klucel (hydroxypropylcellulose) (HPC)) 104 % of control; (dose: 200.0 mg/kg/injection, schedule: Q01DX001 (ip), vehicle: Klucel (hydroxypropylcellulose) (HPC)) 107 % of control; (dose: 400.0 mg/kg/injection, schedule: Q01DX001 (ip), vehicle: Klucel (hydroxypropylcellulose) (HPC)) 104 % of control.
Turning to `COc1ccc(OC)c2c(NCCNCCO)cc(NCCNCCO)nc12`, the T/C is, setting by setting: (dose: 15.0 mg/kg/injection, schedule: Q01DX005 (ip), vehicle: saline) 100 % of control; (dose: 30.0 mg/kg/injection, schedule: Q01DX005 (ip), vehicle: saline) 95 % of control; (dose: 60.0 mg/kg/injection, schedule: Q01DX005 (ip), vehicle: saline) 97 % of control.
As to `Cc1ccc2c(O)c3c(cc2c1O)C(=O)c1ccccc1C3=O`, the T/C by setting is: under setting [4], 100 % of control; under setting [5], 107 % of control; (dose: 200.0 mg/kg/injection, schedule: Q01DX005 (ip), vehicle: saline with Tween-80) 109 % of control.
Regarding `O=C(CNC(=O)OCc1ccccc1)NC(Cc1ccccc1)C(=O)O` (stereo not drawn) (Cbz-Gly-[ξF]-OH), the T/C was 105 % of control under setting [9], 100 % of control under setting [10] and 104 % of control under setting [11].
With `O=C1NC(c2ccccc2)(c2ccccc2)C(=O)N1CNc1ccccn1`, the T/C is, setting by setting: under setting [6], 91 % of control; under setting [7], 89 % of control; under setting [8], 88 % of control.
With `CCCCCCCCOP(=O)(N1CC1)N1CC1`, the T/C (dose: 22.0 mg/kg/injection, schedule: Q04DX003 (ip), vehicle: saline) is 154 % of control; the T/C (dose: 33.0 mg/kg/injection, schedule: Q04DX003 (ip), vehicle: saline) was 222 % of control; the T/C (dose: 50.0 mg/kg/injection, schedule: Q04DX003 (ip), vehicle: saline) is 159 % of control; the T/C (dose: 75.0 mg/kg/injection, schedule: Q04DX003 (ip), vehicle: saline) was 118 % of control.
Take `O=C([O-])c1ccccc1[O-].[Cu+2].c1ccc(-c2ccccn2)nc1`: the T/C by setting is: (dose: 6.25 mg/kg/injection, schedule: Q01DX005 (ip), vehicle: Klucel (hydroxypropylcellulose) (HPC)) 104 % of control; under setting [12], 113 % of control.
Regarding `C=C(Cl)C(=NC(C)(C)C)N(CC)CC`, the T/C by setting is: under setting [12], 104 % of control; (dose: 25.0 mg/kg/injection, schedule: Q01DX005 (ip), vehicle: Klucel (hydroxypropylcellulose) (HPC)) 104 % of control; under setting [9], 107 % of control and 110 % of control.
In the case of `COc1ccc(CCC(=O)O)c(C(CC(=O)O)C(=O)O)c1OS(=O)(=O)c1ccc(C)cc1` (stereo not drawn), the T/C by setting is: under setting [13], 94 % of control; under setting [14], 105 % of control; (dose: 200.0 mg/kg/injection, schedule: Q01DX009 (ip), vehicle: saline with Tween-80) 97 % of control.
Take `Cc1ccc(OCC(COc2ccc(C)cc2)(COc2ccc(C)cc2)COc2ccc(C)cc2)cc1`: the T/C is 86 % of control (dose: 12.5 mg/kg/injection, schedule: Q01DX009 (ip), vehicle: saline with Tween-80); 86 % of control (dose: 25.0 mg/kg/injection, schedule: Q01DX009 (ip), vehicle: saline with Tween-80); 86 % of control under setting [13].
In the case of `CCN(CC)CCOCCOC1CC2CCC1(C)C2(C)C` (stereo not drawn), the T/C reads like this: (dose: 50.0 mg/kg/injection, schedule: Q01DX005 (ip), vehicle: saline) 99 % of control; (dose: 100.0 mg/kg/injection, schedule: Q01DX005 (ip), vehicle: saline) 96 % of control.
Take `CCC[CH2][Sn]([CH2]CCC)([S]CCS(=O)(=O)O)[S]CCS(=O)(=O)O`: the T/C was 100 % of control (dose: 60.0 mg/kg/injection, schedule: Q01DX005 (ip), vehicle: Klucel (hydroxypropylcellulose) (HPC)); 101 % of control (dose: 120.0 mg/kg/injection, schedule: Q01DX005 (ip), vehicle: Klucel (hydroxypropylcellulose) (HPC)); 99 % of control (dose: 240.0 mg/kg/injection, schedule: Q01DX005 (ip), vehicle: Klucel (hydroxypropylcellulose) (HPC)).
On to `CN=NNCc1ccccc1`, for which the T/C by setting is: (dose: 1.56 mg/kg/injection, schedule: Q01DX005 (ip), vehicle: saline) 100 % of control and 102 % of control; (dose: 3.12 mg/kg/injection, schedule: Q01DX005 (ip), vehicle: saline) 98 % of control and 103 % of control; (dose: 6.25 mg/kg/injection, schedule: Q01DX005 (ip), vehicle: saline) 102 % of control and 105 % of control; (dose: 12.5 mg/kg/injection, schedule: Q01DX005 (ip), vehicle: saline) 93 % of control.
Turning to `Nc1ccc2c(Cl)cc(Cl)cc2c1`, the T/C was 100 % of control under setting [13] and 104 % of control under setting [14].
Turning to `O=C(Cc1ccccc1)c1ccc(C(F)(F)F)cc1`, the T/C is, setting by setting: (dose: 12.5 mg/kg/injection, schedule: Q01DX009 (ip), vehicle: Klucel (hydroxypropylcellulose) (HPC)) 104 % of control; (dose: 25.0 mg/kg/injection, schedule: Q01DX009 (ip), vehicle: Klucel (hydroxypropylcellulose) (HPC)) 95 % of control; under setting [1], 104 % of control and 87 % of control.
As for `CCCCCCN(C)C12CN3CN(CN(C3)C1)C2`, the T/C (dose: 50.0 mg/kg/injection, schedule: Q01DX009 (ip), vehicle: saline) was 102 % of control; the T/C (dose: 100.0 mg/kg/injection, schedule: Q01DX009 (ip), vehicle: saline) was 102 % of control; the T/C (dose: 200.0 mg/kg/injection, schedule: Q01DX009 (ip), vehicle: saline) is 102 % of control.
On to `Oc1ccccc1C1=CC=NCCN1`, for which the T/C reads like this: (dose: 15.0 mg/kg/injection, schedule: Q01DX005 (ip), vehicle: saline with Tween-80) 96 % of control; (dose: 30.0 mg/kg/injection, schedule: Q01DX005 (ip), vehicle: saline with Tween-80) 101 % of control; under setting [6], 101 % of control.
